Source: US12275731B2, “Azaindole inhibitors of wild-type and mutant forms of LRRK2” (DANA-FARBER CANCER INSTITUTE, INC., priority 2018, dated 2025)

Key:
Experiment in all cases: KinomeScan profiling
Assay type in all cases: binding
ULK2 = target: T1, ULK2 (Homo sapiens, UniProt Q8IYT8); conditions: ULK2, 1 μM; read-out: % control
T1 sequence (Q8IYT8 1-1036): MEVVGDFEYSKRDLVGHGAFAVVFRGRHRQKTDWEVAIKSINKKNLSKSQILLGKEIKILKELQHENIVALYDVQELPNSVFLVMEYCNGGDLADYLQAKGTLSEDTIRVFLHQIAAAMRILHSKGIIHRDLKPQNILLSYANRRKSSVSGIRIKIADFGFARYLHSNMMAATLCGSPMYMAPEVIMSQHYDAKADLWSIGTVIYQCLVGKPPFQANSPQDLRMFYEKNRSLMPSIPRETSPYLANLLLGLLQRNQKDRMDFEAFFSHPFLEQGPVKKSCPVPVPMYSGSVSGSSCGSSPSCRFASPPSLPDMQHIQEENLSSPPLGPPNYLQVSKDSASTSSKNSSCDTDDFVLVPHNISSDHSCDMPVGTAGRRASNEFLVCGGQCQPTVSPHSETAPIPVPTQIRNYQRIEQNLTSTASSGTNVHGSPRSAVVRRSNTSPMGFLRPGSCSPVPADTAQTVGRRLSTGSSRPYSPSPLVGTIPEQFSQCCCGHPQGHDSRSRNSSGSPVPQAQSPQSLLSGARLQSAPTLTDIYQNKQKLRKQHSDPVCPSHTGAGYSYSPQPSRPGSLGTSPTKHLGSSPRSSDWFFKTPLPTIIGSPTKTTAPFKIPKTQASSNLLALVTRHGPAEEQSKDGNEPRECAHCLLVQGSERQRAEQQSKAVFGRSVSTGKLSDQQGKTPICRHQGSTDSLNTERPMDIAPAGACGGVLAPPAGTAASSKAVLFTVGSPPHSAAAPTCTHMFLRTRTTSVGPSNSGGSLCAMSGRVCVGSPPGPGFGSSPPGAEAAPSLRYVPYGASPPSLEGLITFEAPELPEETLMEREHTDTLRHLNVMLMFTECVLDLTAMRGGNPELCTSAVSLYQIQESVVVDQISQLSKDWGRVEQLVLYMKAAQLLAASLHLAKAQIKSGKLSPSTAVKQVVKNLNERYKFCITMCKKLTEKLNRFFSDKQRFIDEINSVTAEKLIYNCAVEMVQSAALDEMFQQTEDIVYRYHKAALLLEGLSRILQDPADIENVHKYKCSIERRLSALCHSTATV
Outline: (§1)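 Selectivity was assessed by binding competition at 1 μM against 468 kinases. Values below 35% of control define an interaction.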

CSNK1E = CSNK1E (Homo sapiens, UniProt P49674); conditions: read-out: % control
Chain of CSNK1E (P49674 whole entry): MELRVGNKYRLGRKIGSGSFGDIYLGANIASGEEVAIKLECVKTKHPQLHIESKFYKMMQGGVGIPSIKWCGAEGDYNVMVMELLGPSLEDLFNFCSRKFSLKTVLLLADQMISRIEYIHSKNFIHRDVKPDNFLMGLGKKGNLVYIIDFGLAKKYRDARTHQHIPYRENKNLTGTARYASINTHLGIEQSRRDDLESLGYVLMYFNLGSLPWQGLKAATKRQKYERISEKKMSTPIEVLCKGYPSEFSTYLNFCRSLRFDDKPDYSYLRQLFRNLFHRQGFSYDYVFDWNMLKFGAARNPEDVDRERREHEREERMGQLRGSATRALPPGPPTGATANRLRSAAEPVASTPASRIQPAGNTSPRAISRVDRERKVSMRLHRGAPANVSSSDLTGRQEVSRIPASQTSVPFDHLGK
Outline: as §1

LATS1 = target: T2, LATS1 (Homo sapiens, UniProt O95835); conditions: LATS1, 1 μM; read-out: % control
T2 construct: purchased KinomeScan®
T2 sequence (O95835 1-1130): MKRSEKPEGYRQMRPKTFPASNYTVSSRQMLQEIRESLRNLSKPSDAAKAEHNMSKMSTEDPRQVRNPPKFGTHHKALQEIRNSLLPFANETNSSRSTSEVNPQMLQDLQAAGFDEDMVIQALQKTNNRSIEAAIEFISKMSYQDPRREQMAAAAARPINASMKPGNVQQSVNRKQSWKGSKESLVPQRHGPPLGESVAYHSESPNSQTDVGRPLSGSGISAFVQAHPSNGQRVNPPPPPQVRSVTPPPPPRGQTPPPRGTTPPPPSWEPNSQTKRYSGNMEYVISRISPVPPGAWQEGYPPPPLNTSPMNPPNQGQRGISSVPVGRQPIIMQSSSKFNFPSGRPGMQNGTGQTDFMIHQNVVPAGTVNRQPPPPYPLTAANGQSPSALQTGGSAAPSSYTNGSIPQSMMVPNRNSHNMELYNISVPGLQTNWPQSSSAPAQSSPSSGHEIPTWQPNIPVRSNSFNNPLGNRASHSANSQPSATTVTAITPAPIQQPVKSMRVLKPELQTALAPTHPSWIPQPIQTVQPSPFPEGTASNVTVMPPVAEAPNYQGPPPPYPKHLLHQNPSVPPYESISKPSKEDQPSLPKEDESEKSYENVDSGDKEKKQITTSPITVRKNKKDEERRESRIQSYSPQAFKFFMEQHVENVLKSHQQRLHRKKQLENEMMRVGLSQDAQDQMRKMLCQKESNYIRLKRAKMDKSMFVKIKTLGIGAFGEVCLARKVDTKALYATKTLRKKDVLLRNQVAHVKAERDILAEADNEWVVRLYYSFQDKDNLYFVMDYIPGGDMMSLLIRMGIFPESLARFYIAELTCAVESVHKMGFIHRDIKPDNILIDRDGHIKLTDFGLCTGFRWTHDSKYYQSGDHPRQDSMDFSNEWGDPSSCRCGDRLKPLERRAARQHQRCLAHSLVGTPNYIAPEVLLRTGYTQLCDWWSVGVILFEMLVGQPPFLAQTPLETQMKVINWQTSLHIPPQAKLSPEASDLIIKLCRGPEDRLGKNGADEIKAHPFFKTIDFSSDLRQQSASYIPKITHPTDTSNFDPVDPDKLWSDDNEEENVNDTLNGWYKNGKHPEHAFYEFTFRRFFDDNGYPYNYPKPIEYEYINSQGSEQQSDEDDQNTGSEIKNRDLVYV
Outline: as §1

CSNK1G2 = CSNK1G2 (Homo sapiens, UniProt P78368); conditions: CSNK1G2, 1 μM; read-out: % control
Chain of CSNK1G2 (P78368 whole entry): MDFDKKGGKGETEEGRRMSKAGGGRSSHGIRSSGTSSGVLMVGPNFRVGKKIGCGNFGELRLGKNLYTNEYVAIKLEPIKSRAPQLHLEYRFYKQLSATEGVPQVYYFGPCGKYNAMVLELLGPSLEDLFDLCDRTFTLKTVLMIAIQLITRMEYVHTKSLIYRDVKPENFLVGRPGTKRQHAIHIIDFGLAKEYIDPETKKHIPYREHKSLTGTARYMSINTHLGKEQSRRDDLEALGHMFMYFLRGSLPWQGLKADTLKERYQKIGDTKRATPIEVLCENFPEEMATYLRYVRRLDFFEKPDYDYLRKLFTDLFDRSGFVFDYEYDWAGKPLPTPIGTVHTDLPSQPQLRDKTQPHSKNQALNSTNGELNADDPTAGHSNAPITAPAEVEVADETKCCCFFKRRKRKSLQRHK
Outline: as §1

## CNc1c(-c2ccc(C(=O)N3CCC(N4CCOCC4)CC3)cc2)cnc2[nH]cc(Cl)c12 [Compound 96, (4-(3-chloro-4-(methylamino)-1H-pyrrolo[2,3-b]pyridin-5-yl)phenyl)(4-morpholinopiperidin-1-yl)methanone]
ULK2
  remaining binding at 1 µM: 8.7%
CSNK1E
  remaining binding at 1 µM: 17%
LATS1
  remaining binding at 1 µM: 100%
CSNK1G2
  remaining binding at 1 µM: 93%

## O=C(c1ccc(-c2cnc3[nH]cc(Cl)c3c2NC2CCCC2)cc1)N1CCC(N2CCOCC2)CC1 [Compound 101, (4-(3-chloro-4-(cyclopentylamino)-1H-pyrrolo[2,3-b]pyridin-5-yl)phenyl)(4-morpholinopiperidin-1-yl)methanone]
ULK2
  remaining binding at 1 µM: 98%
CSNK1E
  remaining binding at 1 µM: 81%
LATS1
  remaining binding at 1 µM: 100%
CSNK1G2
  remaining binding at 1 µM: 73%

## CNc1c(-c2cnn([C@H]3CCN(C(C)=O)C[C@@H]3F)c2)cnc2[nH]cc(Cl)c12 [Compound 77, 1-((3S,4S)-4-(4-(3-chloro-4-(methylamino)-1H-pyrrolo[2,3-b]pyridin-5-yl)-1H-pyrazol-1-yl)-3-fluoropiperidin-1-yl)ethan-1-one]
ULK2
  remaining binding at 1 µM: 15%
CSNK1E
  remaining binding at 1 µM: 68%
LATS1
  remaining binding at 1 µM: 91%
CSNK1G2
  remaining binding at 1 µM: 81%
